Assay results as given in patent US6440400B1, “Trimethylcylohexane derivatives and melanin-formation inhibitors and perfumeholding agents with the use of the same” (Takasago International Corporation, priority 1998, dated 2002).

Legend:
B-16 melanoma cells = assay: Melanin production inhibiting effect on chromatophore (visual whiteness of cell pellets); type: cell-based; design: key: −: Equal to solvent control (black); +: Slightly different from solvent control (dark gray); ++: Markedly different from solvent control (pale gray); +++: No coloring of cells (white); details: 3 days culture with sample
Description: A plastic culture flask (25 cm^2) was inoculated with 8×10^4 B-16 melanoma cells, which were incubated in a DMEN medium (Nippon Suisan Kaisha, Ltd.) containing 10% serum in the presence of 5% CO2 at 37° C. After 3 days, a test sample diluted with EtOH was added to the medium at a concentration of 0.4, 0.8, 1.6, 3.1 and 6.2 ppm and the culture was continued for further 3 days.
After completion of the culture to remove the culture followed by washing with a phosphate buffer (hereinafter referred to as PBS), the cells were removed from the flask using a medium containing trypsin and EDTA (ethylenediamine tetraacetic acid) and the cells were recovered from the cell suspension by centrifugation.
The cells thus obtained were washed once with PBS and then the pellets were evaluated visually for their whiteness.
Similarly to Example 16, the melanin production inhibiting effects of arbutin, tetrahydroionol, β-ionone, dihydro-β-ionone and the novel compounds of the invention (1′i, 1″i, 1^4′i) on a chromatophore were determined.

[1] = Patch test of 2% lanolin paste on upper arm of panelists; type: in vivo, human; details: 2% by weight in lanolin paste, 24 h patch on upper arm, 30 panelists, observed at removal and 24 h later

Row | Compound | whiteness of cell pellets, evaluated visually (B-16 melanoma cells; 1.6 ppm) | whiteness of cell pellets, evaluated visually (B-16 melanoma cells; 3.1 ppm) | whiteness of cell pellets, evaluated visually (B-16 melanoma cells; 6.2 ppm) | whiteness of cell pellets, evaluated visually (B-16 melanoma cells; 0.4 ppm) | whiteness of cell pellets, evaluated visually (B-16 melanoma cells; 0.8 ppm) | Number of panelists exhibiting abnormality [1] | Number ot panelists exhibiting no abnormality [1]
1 | CCC(O)CCC1C(C)CCCC1(C)C (stereo not drawn) [1^4′b] | + | ++ | +++ |  |  |  | 
2 | CC(O)CCC1C(C)CCCC1(C)C (stereo not drawn) [Tetrahydroionol, tetrahydroionol, reference compound] | − | + | ++ | − | − |  | 
3 | CCC(O)C=CC1C(C)CCCC1(C)C (stereo not drawn) [1″b] | + | ++ | +++ |  |  |  | 
4 | CCCC(=O)C=CC1C(C)CCCC1(C)C (stereo not drawn) [1′c] | + | ++ | +++ |  |  |  | 
5 | CC(C)C(O)CCC1C(C)CCCC1(C)C (stereo not drawn) [1^4′e] | + | ++ | +++ |  |  |  | 
6 | CC(C)CC(O)CCC1C(C)CCCC1(C)C (stereo not drawn) [1^4′g] | ++ | +++ | +++ |  |  |  | 
7 | CC(C)=CCCC(=O)C=CC1C(C)CCCC1(C)C (stereo not drawn) [Compound 1′l, 1-(2′,2′,6′-Trimethylcyclohexan-1′-yl)-7-methyloctan-1,6-dien-3-one] | + | +++ | +++ |  |  |  | 
8 | CCCCCCCC(O)CCC1C(C)CCCC1(C)C (stereo not drawn) [Compound 1^4′m, 1-(2′,2′,6′-Trimethylcyclohexan-1′-yl)-decan-3-ol] | + | + | + |  |  |  | 
9 | CCCC(O)CCC1C(C)CCCC1(C)C (stereo not drawn) [1^4′c] | + | ++ | +++ |  |  |  | 
10 | CC1CCCC(C)(C)C1C=CC(=O)C(C)(C)C (stereo not drawn) [1′h] | + | ++ | +++ |  |  |  | 
11 | CC(C)=CCCC(O)C=CC1C(C)CCCC1(C)C (stereo not drawn) [Compound 1″l, 1-(2′,2′,6′-Trimethylcyclohexan-1′-yl)-7-methyloctan-1,6-dien-3-ol] | +++ | +++ | +++ |  |  |  | 
12 | CC(C)CC(=O)C=CC1C(C)CCCC1(C)C (stereo not drawn) [1′g] | + | ++ | +++ |  |  |  | 
13 | OC[C@H]1O[C@@H](Oc2ccc(O)cc2)[C@H](O)[C@@H](O)[C@@H]1O [ARBUTIN, arbutin, reference compound] | − | − | + | − | − |  | 
14 | CC(C)CCCC(=O)C=CC1C(C)CCCC1(C)C (stereo not drawn) [Compound 1′k, 1-(2′,2′,6′-Trimethylcyclohexan-1′-yl)-7-methyloctan-1-en-3-one] | ++ | +++ | +++ |  |  |  | 
15 | CCC(O)C(C)=CC1C(C)CCCC1(C)C (stereo not drawn) [1″u] | + | ++ | +++ |  |  |  | 
16 | CC(=O)/C=C/C1=C(C)CCCC1(C)C [β-Ionone, β-ionone, reference compound] | − | + | ++ | − | − |  | 
17 | CC(C)CCCC(O)C=CC1C(C)CCCC1(C)C (stereo not drawn) [Compound 1″k, 1-(2′,2′,6′-Trimethylcyclohexan-1′-yl)-7-methyloctan-1-en-3-ol] | +++ | +++ | +++ |  |  |  | 
18 | CCCCCC(O)C(C)=CC1C(C)CCCC1(C)C (stereo not drawn) [Compound 1″x, 1-(2′,2′,6′-Trimethylcyclohexan-1′-yl)-2-methyloctan-1-en-3-ol] | + | ++ | +++ |  |  |  | 
19 | CCC(=O)C=CC1C(C)CCCC1(C)C (stereo not drawn) [1′b] | + | ++ | +++ |  |  |  | 
20 | CCCCCCCC(O)C=CC1C(C)CCCC1(C)C (stereo not drawn) [Compound 1″m, 1-(2′,2′,6′-Trimethylcyclohexan-1′-yl)-decan-1-en-3-ol] | + | + | +++ |  |  |  | 
21 | CCCCCC(=O)C(C)=CC1C(C)CCCC1(C)C (stereo not drawn) [1′x, 1-(2′,2′,6′-Trimethylcyclohexan-1′-yl)-2-methyloctan-1-en-3-one] | + | ++ | +++ |  |  |  | 
22 | CCCCCC(O)CCC1C(C)CCCC1(C)C (stereo not drawn) [Compound 1^4′i, 1-(2′,2′,6′-Trimethylcyclohexan-1′-yl)-octan-3-ol] | ++ | +++ | +++ | − | − |  | 
23 | CCCCCC(=O)C=CC1C(C)CCCC1(C)C (stereo not drawn) [Compound 1′i, 1-(2′,2′,6′-Trimethylcyclohexan-1′-yl)octan-1-en-3-one] | +++ | +++ | +++ | − | + | 0 | 30
24 | CCCCCC(O)C=CC1C(C)CCCC1(C)C (stereo not drawn) [Compound 1″i, 1-(2′,2′,6′-trimethylcyclohexan-1′-yl)octan-1-en-3-ol] | +++ | +++ | +++ | − | + | 0 | 30
25 | CC(C)CC(O)C=CC1C(C)CCCC1(C)C (stereo not drawn) [1″g] | +++ | +++ | +++ |  |  |  | 
26 | CC(=O)CCC1=C(C)CCCC1(C)C [Dihydro-β-ionone, dihydro-β-ionone, reference compound] | − | + | ++ | − | − |  | 
27 | CCCC(O)C=CC1C(C)CCCC1(C)C (stereo not drawn) [1″c] | ++ | +++ | +++ |  |  |  | 
28 | CCCCCCCC(=O)C=CC1C(C)CCCC1(C)C (stereo not drawn) [Compound 1′m, 1-(2′,2′,6′-Trimethylcyclohexan-1′-yl)-decan-1-en-3-one] | + | + | +++ |  |  |  | 
